Where a name gives a salt, the structure may show the parent alone.

This experiment relates to von Bezold-Jarisch reflex evoked by 5-HT. As to the kind of experiment: Antagonism of the von Bezold-Jarisch reflex evoked by 5-HT in the anaesthetised rat. In kind it is in vivo. The following applies: iv, male rats, urethane anaesthesia, compounds intravenously, 5-HT usually 6 μg/kg i.v., heart rate changes, read-out: ED50 (concentration required to reduce the 5HT-evoked response to 50% of the control response). The procedure:
Antagonism of the von Bezold-Jarisch reflex
The compounds were evaluated for antagonism of the von Bezold-Jarisch reflex evoked by 5-HT in the anaesthetised rat according to the following method:
Male rats, 250-350 g, were anaesthetised with urethane (1.25 g/kg intraperitoneally) and blood pressure and heart rate recorded as described by Fozard J. R. et al., J. Cardiovasc. Pharmacol. 2, 229-245 (1980). A submaximal dose of 5-HT (usually 6 μg/kg) was given repeatedly by the intravenous route and changes in heart rate quantified. Compounds were given intravenously and the concentration required to reduce the 5HT-evoked response to 50% of the control response (ED50) was then determined.

On to `CN1[C@@H]2CC[C@H]1C[C@@H](NC(=O)N1CC3(CCCCC3)c3ccccc31)C2` [Compound 1], for which the ED50 was determined as 3.6 µg/kg. For `CN1[C@@H]2CC[C@H]1C[C@@H](NC(=O)N1CC3(CC3)c3ccccc31)C2` [Compound 6] the value was 3.5 µg/kg; for `O=C(NC1CN2CCC1CC2)N1CC(c2ccccc2)c2ccccc21` (stereo not shown) [Compound 8, N-(1-Azabicyclo[2.2.2]oct-3-yl)2,3-dihydro-3-phenylindol-1-yl urea hydrochloride], 1.2 µg/kg; for `CN1[C@@H]2CC[C@H]1C[C@@H](NC(=O)N1CC3(CCCC3)c3ccccc31)C2` [Compound 10], 1.8 µg/kg.

(Values after patent US4920127A, “Substituted indoles and their use as 5-HT3 receptor antagonists” (Beecham Group p.l.c., priority 1987, dated 1990).)
